Assay results as given in patent US4272507A, “Phenylaminothiophenacetic acids, their synthesis, compositions and use” (priority 1978, dated 1981).

Tests used:
[1] = system: formation of granulation tissue after subcutaneous implantation of cotton; test: Chronic antiphlogistic action: cotton pellet test (formation of granulation tissue) in rats; details: rats
Method: Biol. Med., 111 (1962) 544]}, on chronic inflammatory processes {Cotton pellet test on rats [Winter et al.: J. Pharmacol. exp. Therap., 141 (1963) 369]} and on adjuvant arthritis [based on the method of Perrine et al., Brit. J. Pharmacol., 21 (1963) 127] is determined.
Experimental procedure for investigating the influence of the compounds to be tested on the formation of granulation tissue after implantation of cotton in rats (so-called cotton pellet method):
1 cotton pellet (manufacturer: Messrs. Hartmann/Heidenheim; cotton pellets size 2, No. 4865/2) which weighs 13.0±0.5 mg and has been impregnated beforehand with 0.1 ml of a solution of 0.5 mg of penicillin G and 0.8 mg of streptomycin sulfate/1 ml of distilled water is in each case implanted subcutaneously into the shoulder-blade region, on both sides, of male Sprague-Dawley rats (groups of 8 animals each; weight of each animal: 150 to 170 g) under diethyl ether anaesthesia and under sterile conditions. The cut skin is closed by means of clamps.
The compounds to be tested (in the form of the sodium salt in aqueous solution) or the corresponding amount (5 ml/kg/day) of tapwater (=control group) are administered orally each day on seven successive days. On the eighth day, the animals are killed and the cotton granules are exposed carefully, that is to say preserving the fibrous tissue capsule, dried (15 hours at 120°) and weighed. By substracting the weight of the cotton pellets, the amount of newly formed granulation tissue is obtained.
The percentage reduction in the average granuloma dry weight of a treated group compared with the control group (=100%) serves as a measure of the antiproliferative action of a compound.

[2] = system: rats; details: 7 days (Table 6)
[3] = in vivo; details: rat, po
[4] = system: yeast-induced fever in rats; test: Antipyretic action: yeast-induced fever in rats; assay type: in vivo, rats (female Sprague-Dawley); details: rats
Method: The antipyretic action is determined by the influence of the compounds to be tested on yeast-induced fever in rats.
Hyperthermia is produced in female Sprague-Dawley rats (in groups of 5 animals; weight of each animal: 160 to 180 g) by subcutaneous injection (neck) of 10 ml/kg of a 20 percent strength aqueous brewer's yeast suspension (brewer's yeast "Heliosan"/Hefereformwerk Radolfzell). 24 hours after the yeast injection, the compounds to be tested are administered orally to the animals in a volume of liquid of 5 ml/kg, and a control group receives the corresponding amount of tapwater. The feed (Altromin®R, water ad libitum) was withdrawn from the rats 18 hours beforehand. The rats are kept at about 23° C.
The body temperature is recorded 1 hour before administration of the substance and at hourly intervals after administration of the substance.
[…] The body temperature is measured with a temperature probe (Tastomed H, Braun electronic).

## Cc1cccc(C)c1Nc1cscc1CC(=O)O [Compound 9, 4-(2,6-dimethylanilino)-3-thiophenacetic acid]
[1]; cotton pellet test, LD50 7 days oral
  Therapeutic quotient LD50/ED20: > 10
[1]; 7 x 3.0 mg/kg/day orally, sodium salt
  Inhibition of the formation of granulation tissue after treatment for 7 days: 19%
[2]
  LD50, lethal action after administration for 7 days: > 30 mg/kg/day
[3]
  LD50 at 168 h: > 30 mg/kg
[4]; Rattus norvegicus, po, perorally, single dose, read-out: ED1.5 (dose which causes a maximum reduction in yeast-induced fever of 1.5° C.)
  ED (1.5 degC): 0.3 mg/kg
[4]; single oral dose 0.1 mg/kg
  Maximum reduction in yeast-induced fever over a period of 7 hours: 1.0 °C
[4]; single oral dose 0.3 mg/kg
  Maximum reduction in yeast-induced fever over a period of 7 hours: 1.5 °C
[4]; single oral dose 1 mg/kg
  Maximum reduction in yeast-induced fever over a period of 7 hours: 2.3 °C
[4]; yeast-induced fever, LD50 7 days
  Therapeutic quotient LD50/ED2.5: > 100
